These results are taken from US8680073B2, “Stable hyaluronan/steroid formulation” (Genzyme Corporation, priority 2009, dated 2014).

Type in all cases: physicochemical
Data set [1] in a line: pH of HA viscosupplement/steroid formulations by heat treatment. On the procedure:
(§1) We conducted various experiments in which a number of steroids, both soluble and insoluble, were mixed with HA-based viscosupplements, and the heat stability of the HA/steroid formulations were evaluated at 121° C. for 30 min (simulated autoclave conditions), to achieve a bioburden inactivation of approximate 30 Fo, where Fo is the total heat applied during the cycle to achieve a desired probable inactivation ratio). Formulations were also evaluated after heating at 80° C. for 24 hours (simulated two year room temperature shelf-life).
(§2) Compositions retained suitable pH and osmolarity.

Data set [2] is described as follows: Osmolality of HA viscosupplement/steroid formulations by heat treatment. On the procedure: as §1, §2
Data set [3] in a line: Rheology of HA viscosupplement/steroid formulations by heat treatment. The settings on record: formulations of HARC with the steroid, compared to control without steroid. The method, then:
as §1
Specifically we tested the TAH mixtures with SYNVISC® and hylastan products of Genzyme Corporation, Framingham Mass.^1 The rheological properties of the heat treated SYNVISC®/steroid and hylastan SGL-80/steroid formulations plus their controls are listed in Tables 1a and 1b, respectively, set out below. 1 Synvisc is a gel-like mixture that is made up of hylan A fluid, hylan B gel, and salt water. Hylan A and hylan B are made from a substance called hyaluronan (also known as sodium hyaluronate) from chicken combs.

Take `CC(C)(C)CC(=O)OCC(=O)[C@@]12OC(C)(C)O[C@@H]1C[C@H]1[C@@H]3CCC4=CC(=O)C=C[C@]4(C)[C@@]3(F)[C@@H](O)C[C@@]12C` [TAH, triamcinolone hexacetonide]: the “Change in pH after mixing into the HA-based viscosupplements” value in data set [1] is recorded as “no significant change”. Also, in data set [2], the “Change in osmolality after mixing into the HA-based viscosupplements” value was “no significant change”. The “Effect of the steroid on HARC properties after heat treatment” value (“Effect of the steroid on HARC properties” for short) in data set [3] is “behaved to comparably to control formulations having no steroid”.

Consider `CC(=O)OCC(=O)[C@@]1(O)[C@@H](C)C[C@H]2[C@@H]3CCC4=CC(=O)C=C[C@]4(C)[C@@]3(F)[C@@H](O)C[C@@]21C` [betamethasone acetate], for which the “Effect of the steroid on HARC properties” value in data set [3] is “interacted with HARC”.

On to `C[C@H]1C[C@H]2[C@@H]3CCC4=CC(=O)C=C[C@]4(C)[C@@]3(F)[C@@H](O)C[C@]2(C)[C@@]1(O)C(=O)COP(=O)(O)O` [betamethasone phosphate], for which, in data set [3], the “Effect of the steroid on HARC properties” value is reported as “exacerbated degradation of HARC properties after heat treatment”.
